US20050130935A1, “Combination of a beta-2-adrenoceptor agonists and an aminosugars and their use for the treatment immunomodulatory disorders” (priority 2002, published 2005)

Key:
[1] = tested on: arachidonic acid induced ear oedema; experiment: arachidonic acid induced ear inflammation test in the mouse, complex versus its components (Example 178); assay type: in vivo; settings: i.p.; for inhibition of ear oedema, in words: doses of T17
Description: The objective of this study is to assess the effect of a dose of a complex according to compared to the effect of the corresponding doses of the components of the complex. All compounds were systemically administered in the arachidonic acid induced ear inflammation test in the mouse, a commonly employed method for screening and evaluation of antiinflammatory drugs. Methylprednisolone was employed as reference compound.
(§1) The study was performed in female BALB/ca mice from M & B A/S, DK-8680 Ry. At start of the acclimatisation period the mice were in the weight range of 20 g (+/−5 g).
On the day of arrival the animals were randomly allocated to groups of 10 mice.
(§2) The test substances and reference compound were administered intraperitoneally in volumes of 20 ml per kg body weight 30 minutes before application of arachidonic acid to the ear.
All groups were treated with 20 μl arachidonic acid, 100 mg/ml in acetone, on the right ear.
One hour after the arachidonic acid application the mice were sacrificed, the ears cut from the tip with a punch biopsy knife (8 mm diameter) and weighed.
(§3) Mean weights and standard deviations were calculated. Relative ear oedema was assessed as the weight difference between right and left ear of each mouse expressed as percent of the left ear. Percent inhibition of the relative ear oedema compared with the vehicle treated groups was calculated for the test substance and reference compound treated groups.
All visible signs of ill health and any behavioural changes were recorded daily during the study. Any deviation from normal was recorded with respect to time of onset, duration and intensity.
Differences in relative ear oedema between the vehicle treated group and the other groups were tested for significance employing a non-parametric statistical method of analysis, the Mann-Whitney U test. The required level of significance will be p<0.05. […] All statistical analysis was performed employing the statistical software package Analyse-it v. 1.62.

[2] = tested on: osteoarthritis of the knees; experiment: case report, person with osteoarthritis of the knees (Example 180); assay type: in vivo, human; settings: for success of earlier analgesic treatment of osteoarthritis of the knees: treatment for periods during 8 years
Description: They were then treated with the complex of the invention disclosed in example 56 (1500 mg/day). […] The improvement persisted for the entire treatment period of 10 weeks, where after the treatment was terminated.

muscular pain = experiment: case report, with muscular pain (Example 179); assay type: in vivo, human
Description: They were then treated with the complex of the invention disclosed in example 56 (1500 mg/day) instead of glucosamine sulfate. […] After two weeks they were symptom free for the first time in 6 years, which persisted for another 6 weeks of treatment, where after the treatment was terminated.

[3] = tested on: arachidonic acid induced ear oedema; experiment: arachidonic acid induced ear inflammation test in the mouse (Example 177); assay type: in vivo; settings: i.p., 30 minutes before arachidonic acid, ears weighed one hour after application
Description: The objective of this study is to assess the effect of three doses of two chemical complexes of the invention systemically administered in the arachidonic acid induced ear inflammation test in the mouse, a commonly employed method for screening and evaluation of antiinflammatory drugs. Dexamethasone was employed as reference compound.
as §1
On the day of arrival the animals were randomly allocated to groups of 8 mice.
as §2
All groups were treated with 20 μl arachidonic acid, 100 mg/ml in acetone, on the right ear. […]
as §3
All visible signs of ill health and any behavioural changes were recorded daily during the study. Any deviation from normal was recorded with respect to time of onset, duration and intensity. […]

C[C@H]1C[C@@H]2[C@H]([C@@H](O)C[C@@]3(C)[C@H]2CC[C@]3(O)C(=O)CO)[C@@]2(C)C=CC(=O)C=C12 [Methylprednisolone]
% Inhibition of relative ear oedema ([1]; 30 mg/kg): 55%

O=C(O)Cc1ccccc1Nc1c(Cl)cccc1Cl [diclofenac]
success of earlier analgesic treatment of osteoarthritis of the knees [2]: limited success

CC(C)Cc1ccc(C(C)C(=O)O)cc1 (stereo not shown) [ibuprofen]
success of earlier analgesic treatment of muscular pain (muscular pain; treatment for periods during 6 years): limited success

CS(=O)(=O)c1ccc(C2=C(c3ccccc3)C(=O)OC2)cc1 [rofecoxib]
success of earlier analgesic treatment of osteoarthritis of the knees [2]: limited success

N[C@H]1C(O)O[C@H](CO)[C@@H](O)[C@@H]1O.O=S(=O)(O)O (stereo partly shown) [Glucosamine sulfate]
% Inhibition of relative ear oedema ([1]; 997 mg/kg): 9% | inhibition of ear oedema, in words [1]: inhibited ear oedema mildly, and not statistically significantly | improvement of muscular pain symptoms on earlier treatment (muscular pain; 1500 mg a day, continuously the last year): small improvement

C[C@@H]1C[C@H]2[C@@H]3CCC4=CC(=O)C=C[C@]4(C)[C@@]3(F)[C@@H](O)C[C@]2(C)[C@@]1(O)C(=O)CO [Dexamethasone]
% Inhibition of relative ear oedema ([3]; 2 mg/kg): 0% | % Inhibition of relative ear oedema ([3]; 6 mg/kg): 0%

COc1ccc2c3c1O[C@H]1[C@@H](O)C=C[C@H]4[C@@H](C2)N(C)CC[C@@]341 [codeine]
success of earlier analgesic treatment of osteoarthritis of the knees [2]: limited success

CC(C)(C)NCC(O)c1ccc(O)c(CO)c1 (stereo not shown) [Salbutamol]
% Inhibition of relative ear oedema ([1]; 3.0 mg/kg): 55% | inhibition of ear oedema, in words [1]: inhibited ear oedema significantly

N[C@H]1C(O)O[C@H](CO)[C@@H](O)[C@@H]1O (stereo partly shown) [glucosamine]
effect of earlier treatment on osteoarthritis of the knees ([2]; recommended dose, different formulations): very limited effect
